Assay results: PMC11466185, “Mechanisms and efficacy of small molecule latency-promoting agents to inhibit HIV reactivation ex vivo” (JCI Insight, 2024)
“And” between values parts separate entries of the source, which are not always exact repeats. Identical values can stand only once.

How the values were obtained:
[1] = tested on: HIV transcripts (TAR, LLTR, Pol, PolyA, TatRev); assay: Latency reversal assay: cell-associated HIV transcripts (RT-ddPCR) 24 hours after anti-CD3/CD28 activation of PBMCs from ART-suppressed PWH; type: cell-based; parameters: key to TatRev: % of activated DMSO control, normalized to 1 μg total RNA; Elongated (LLTR) HIV transcripts, median relative to activated DMSO, initial screening / Midtranscribed (Pol) HIV transcripts, median relative to activated DMSO, initial screening / Multiply spliced (TatRev) HIV transcripts, median relative to activated DMSO, initial screening: concentration or dose not given beside the values; conditions: for Pol HIV transcripts (DMSO αCD3/28 = 100) / PolyA HIV transcripts (DMSO αCD3/28 = 100) / TatRev HIV transcripts (DMSO αCD3/28 = 100): αCD3/28-activated, ruxolitinib 4μM, triptolide 25-50nM, alvocidib 40nM, dinaciclib 8nM, AZD4573 8nM, quercetin 5μM, pladienolide B 10nM, isoginkgetin 25μM, herboxidiene 5nM, KRIBB11 2.5μM, tanespimycin 5μM, mithramycin A 25nM; for PolyA / TatRev: DMSO+αCD3/28 = 100, Fig 3A; for LLTR/TAR / PolyA/LLTR / TatRev/PolyA: DMSO+CD3/28 = 1, Fig 3B, C and D
Protocol: We selected 26 small molecules targeting pathways implicated in HIV transcription or the blocks to HIV transcription underlying latency (Supplemental Table 1). […] Initial screening of all drugs was performed in freshly isolated PBMCs from 2 ART-suppressed individuals (Figure 1 and Supplemental Figure 2). PBMCs were cultured in the presence of individual drugs in DMSO or DMSO alone as a control, subsequently activated (anti-CD3/CD28), and harvested after 24 hours. […] The progression through different blocks to HIV transcription was quantified by measuring the levels of initiated (TAR), 5′ elongated (LLTR), midtranscribed/unspliced (Pol), completed (PolyA), and multiply spliced (TatRev) HIV transcripts. The levels of those HIV transcripts were normalized to 1 μg of total cellular RNA (to normalize for the effect of the drug on global cellular transcription) and expressed as a percentage of the activated DMSO control.
Figure 1 Screening of candidate LPAs by measuring the change in multiply spliced HIV transcripts after activation. Each drug was tested in PBMCs from 2 ART-suppressed study participants (denoted in the legend by varying symbol shapes). PBMCs were aliquoted into wells at 6 × 10^6 cells/well. After activation, the cells were cultured with antiretrovirals in the presence of individual drugs in DMSO or DMSO alone as control. All conditions were tested in the presence of CD3/28 T cell–activating beads, except for the unactivated DMSO condition. (A) After 24 hours, the viability was measured by trypan blue staining and then normalized to the levels of the activated DMSO (% of activated DMSO). Bars indicate medians. (B) Total cellular RNA was extracted, and the levels of multiply spliced HIV transcripts (TatRev) were measured by RT-ddPCR, normalized to 1 μg of total cellular RNA, and expressed as a percentage of the activated DMSO control (% of activated DMSO). RT-dd, reverse transcription digital droplet; vRNA, viral RNA; HAT, histone acetyltransferase.
The ability of our candidate LPAs to inhibit HIV transcriptional progression after activation was examined in PBMCs from a minimum of 7 PWH per drug tested (Figure 3). PBMCs were cultured in the presence of individual drugs in DMSO or in DMSO alone as a control, subsequently activated (anti-CD3/CD28), and harvested after 24 hours.
Each drug was tested in PBMCs from 7 ART-suppressed study participants. The PBMCs were aliquoted into wells at 6 × 10^6 cells/well. After activation, the cells were cultured with antiretrovirals in the presence of individual drugs in DMSO or DMSO alone as control. All conditions were tested in the presence of CD3/28 T cell–activating beads, except for the unactivated DMSO condition. After 24 hours, total RNA was extracted, and the progression through different stages of HIV transcription was quantified by measuring the levels of initiated (TAR), 5′ elongated (LLTR), midtranscribed/unspliced (Pol), completed (PolyA), and multiply spliced (TatRev) HIV transcripts. (A) The levels of all HIV transcripts were normalized to 1 μg of total cellular RNA and expressed as a percentage of the activated DMSO control (% of activated DMSO). Medians are shown as well as the individual values per study participant in different colors. (B–D) The effect of each drug on HIV transcriptional progression after activation was analyzed by the ratio of one HIV transcript to another. Ratios are independent of HIV infection frequency or normalization to cell numbers. Shown are the proportion of (B) all HIV transcripts that were elongated (LLTR/TAR), (C) elongated HIV transcripts that were completed spliced (PolyA/LLTR), and (D) completed transcripts that were multiply spliced (TatRev/PolyA).

[2] = tested on: PBMCs; assay: Total number of live cells (proliferation) by trypan blue staining at day 6; type: cell-based, human; conditions: for Fig 6B: total live cells relative to DMSO+CD3/28: DMSO+CD3/28 = 100
Protocol: Some of our candidate LPAs can block the effects of T cell activation, which could affect T cell proliferation. Therefore, we evaluated the extent to which variations in the level of infected cells may contribute to reductions in different HIV RNA transcripts. We measured the total number of viable cells (as a measure of proliferation) and the conserved U3-U5 LTR HIV DNA region (as a measure of total infection frequency) at day 6.
(A) After 6 days, the total number of live cells was measured by trypan blue staining and then normalized to the levels of the activated DMSO (% of activated DMSO). All conditions were tested in the presence of CD3^+/CD28^+ T cell–activating beads, except for the unactivated DMSO condition. Bars indicate medians, and different colors indicate individual study participants. Comparisons were performed using Wilcoxon’s signed-rank test. (B) Total cellular DNA was extracted, and the levels of U3-U5 HIV DNA were measured to quantify infection frequency at 6 days. HIV DNA levels were normalized to copies per 10^6 cells using the input of cellular DNA (assuming 1 μg of total DNA corresponds to 160,000 cells) and then normalized to the activated DMSO control (% of activated DMSO). Bars indicate medians, and different colors indicate individual study participants.

[3] = 5nM, 24 h after αCD3/28 activation, each column one participant

CO[C@H]([C@@H](C)[C@H]1O[C@]1(C)C[C@H](C)/C=C/C=C(\C)[C@H]1O[C@@H](CC(=O)O)CC[C@@H]1C)[C@@H](C)O [herboxidiene]
LLTR HIV transcripts (DMSO+αCD3/28 = 100) [1, 3]: 81.19 and 43.81 and 65.61 and 39.82 and 46.55 and 19.9 and 41.59
Pol HIV transcripts (DMSO+αCD3/28 = 100) [1, 3]: 51.16 and 73 and 22.91 and 16.22 and 3.35 and 168.38
TAR HIV transcripts (DMSO+αCD3/28 = 100) [1, 3]: 84.02 and 77.63 and 124.48 and 122.07 and 106.99 and 116.67
TatRev HIV transcripts (DMSO+αCD3/28 = 100) [1, 3]: 33.33 and 25.2 and 10.9 and 51.8 and 0 (2×)
HIV transcriptional elongation, ratio LLTR/TAR ([1]; 24 hours, compared with activated DMSO, Figure 3B): Significant reductions
Reduction of multiply spliced or completed HIV transcripts in drug screen (selection as candidate LPA) ([1]; initial screening, 2 participants, 24 hours): more than 50%
Multiply spliced (TatRev) HIV transcripts, median relative to activated DMSO, initial screening ([1]; initial screening, 2 participants, 24 hours, Figure 1B, Supplemental Figure 2): 23%
Pol HIV transcripts (DMSO αCD3/28 = 100) ([1]; participant 150b): 43.29
PolyA HIV transcripts (DMSO αCD3/28 = 100) ([1]; participant 150b): 23.53
TatRev HIV transcripts (DMSO αCD3/28 = 100) ([1]; participant 150b): 2.69
Pol HIV transcripts (DMSO αCD3/28 = 100) ([1]; participant 1379): 47.94
PolyA HIV transcripts (DMSO αCD3/28 = 100) ([1]; participant 1379): 28.08
TatRev HIV transcripts (DMSO αCD3/28 = 100) ([1]; participant 1379): 171.43
Pol HIV transcripts (DMSO αCD3/28 = 100) ([1]; participant 2027): 133.33
PolyA HIV transcripts (DMSO αCD3/28 = 100) ([1]; participant 2027): 36.92
TatRev HIV transcripts (DMSO αCD3/28 = 100) ([1]; participant 2027): 0
Pol HIV transcripts (DMSO αCD3/28 = 100) ([1]; participant 2147a): 105.88
PolyA HIV transcripts (DMSO αCD3/28 = 100) ([1]; participant 2147a): 21.76
TatRev HIV transcripts (DMSO αCD3/28 = 100) ([1]; participant 2147a): 28.42
Pol HIV transcripts (DMSO αCD3/28 = 100) ([1]; participant 2161): 169.45
PolyA HIV transcripts (DMSO αCD3/28 = 100) ([1]; participant 2161): 268.67
TatRev HIV transcripts (DMSO αCD3/28 = 100) ([1]; participant 2161): 176.87
Pol HIV transcripts (DMSO αCD3/28 = 100) ([1]; participant 2256): 18.46
PolyA HIV transcripts (DMSO αCD3/28 = 100) ([1]; participant 2256): 16.27
TatRev HIV transcripts (DMSO αCD3/28 = 100) ([1]; participant 2256): 1.4
PolyA HIV transcripts (DMSO αCD3/28 = 100) ([1]; participant 2461): 1692.31
Pol HIV transcripts (DMSO αCD3/28 = 100) ([1]; participant 5557): 23.16
PolyA HIV transcripts (DMSO αCD3/28 = 100) ([1]; participant 5557): 23.33
TatRev HIV transcripts (DMSO αCD3/28 = 100) ([1]; participant 5557): 0
Multiply spliced HIV transcripts (TatRev) (Fig 1B) ([1]; study participant 150a, 24 hours): 33.33 % of activated DMSO
PolyA ([1]; study participant 150a): 73.21
TatRev ([1]; study participant 150a): 33.33
LLTR/TAR ([1]; study participant 1379): 0.186
PolyA/LLTR ([1]; study participant 1379): 0.4248
TatRev/PolyA ([1]; study participant 1379): 0
PolyA ([1]; study participant 1379): 8.45
TatRev ([1]; study participant 1379): 0
LLTR/TAR ([1]; study participant 2027): 0.85
PolyA/LLTR ([1]; study participant 2027): 0.67
PolyA ([1]; study participant 2027): 43.76
Multiply spliced HIV transcripts (TatRev) (Fig 1B) ([1]; study participant 2147b, 24 hours): 12.13 % of activated DMSO
LLTR/TAR ([1]; study participant 2147b): 0.2964
PolyA/LLTR ([1]; study participant 2147b): 0.9546
TatRev/PolyA ([1]; study participant 2147b): 0.3499
PolyA ([1]; study participant 2147b): 22.4
TatRev ([1]; study participant 2147b): 10.9
LLTR/TAR ([1]; study participant 2256): 0.3813
PolyA/LLTR ([1]; study participant 2256): 0.9973
TatRev/PolyA ([1]; study participant 2256): 1.116
PolyA ([1]; study participant 2256): 46.43
TatRev ([1]; study participant 2256): 51.8
LLTR/TAR ([1]; study participant 2750): 0.5214
PolyA/LLTR ([1]; study participant 2750): 1.543
TatRev/PolyA ([1]; study participant 2750): 0.3728
PolyA ([1]; study participant 2750): 67.59
TatRev ([1]; study participant 2750): 25.2
LLTR/TAR ([1]; study participant 5557): 0.3565
PolyA/LLTR ([1]; study participant 5557): 0.117
TatRev/PolyA ([1]; study participant 5557): 0
PolyA ([1]; study participant 5557): 4.86
TatRev ([1]; study participant 5557): 0
Total live cell numbers (proliferation) compared with activated DMSO (in words) ([2]; day 6, Figure 6A): did not change proliferation rates
Fig 6B: total live cells relative to DMSO+CD3/28 ([2]; participant 150b): 68
Fig 6B: total live cells relative to DMSO+CD3/28 ([2]; participant 1379): 22.5
Fig 6B: total live cells relative to DMSO+CD3/28 ([2]; participant 2027): 98.18
Fig 6B: total live cells relative to DMSO+CD3/28 ([2]; participant 2147a): 103.96
Fig 6B: total live cells relative to DMSO+CD3/28 ([2]; participant 2147b): 121.98
Fig 6B: total live cells relative to DMSO+CD3/28 ([2]; participant 2161): 132.2
Fig 6B: total live cells relative to DMSO+CD3/28 ([2]; participant 2256): 89.47
Fig 6B: total live cells relative to DMSO+CD3/28 ([2]; participant 2461): 80.23
Fig 6B: total live cells relative to DMSO+CD3/28 ([2]; participant 5557): 117.65
Total number of live cells (Fig 6A) ([2]; study participant 1379, day 6): 82.06 % of activated DMSO
Total number of live cells (Fig 6A) ([2]; study participant 2027, day 6): 34.68 % of activated DMSO
Total number of live cells (Fig 6A) ([2]; study participant 2147a, day 6): 115.89 % of activated DMSO
Total number of live cells (Fig 6A) ([2]; study participant 2147b, day 6): 188.02 % of activated DMSO
Total number of live cells (Fig 6A) ([2]; study participant 2161, day 6): 72.75 % of activated DMSO
Total number of live cells (Fig 6A) ([2]; study participant 2256, day 6): 87.5 % of activated DMSO
Total number of live cells (Fig 6A) ([2]; study participant 2461, day 6): 32.33 % of activated DMSO
Total number of live cells (Fig 6A) ([2]; study participant 5557, day 6): 99.29 % of activated DMSO
